In patent US20150344426A1, “COMPOUNDS AND THERAPEUTIC USES THEREOF” (ALZHEIMER'S INSTITUTE OF AMERICA, INC., priority 2012, published 2015):

Columns and labels:
[1] = Stability assessment / semi-quantitative hygroscopicity in a relative humidity (RH) chamber; format: physicochemical; details: solid in RH chamber; morphology and parent:prodrug composition
Experimental: “ND” in Table 2 refers to “No Data”. Purity was determined by HPLC. Melting point was determined by differential scanning calorimetry (“DSC”), and semi-quantitative hygroscopicity was determined in a relative humidity (“RH”) chamber.

[2] = Stability in mouse liver microsomal preparations; format: in vitro ADME; details: liver microsomes, with and without 1 mM NADPH (not said which), read-out: Mouse Liver Microsomes t1/2
Experimental: (§1) Relative stability of Example Compound Nos. 1 through 60 in mouse plasma and mouse liver microsomal preparations.
(§2) Certain Example Compounds were each added to a final concentration of 1 μM to 1 mL of each of mouse plasma and mouse liver microsomal preparations (with and without 1 mM NADPH). Stability assays were run in duplicate and were sampled at 0, 5, 15, 30, 60 and 120 minutes as follows: one hundred microliter aliquots of samples were removed at the specified sampling times, and the reaction was quenched with 400 μL of acetonitrile.
(§3) Samples were analyzed by HPLC-ESI-MS/MS by measuring the peak area of both the starting Example Compound and parent compound (i.e., either Parent Compound A or Parent Compound B) that were created by removal of the Prodrug Moiety (as defined in Section 6 herein).

[3] = Stability in mouse plasma; format: in vitro ADME; details: read-out: Mouse Plasma t1/2
Experimental: as §1, §2, §3

[4] = tested on: HT1080 human fibrosarcoma cancer cells; assay: Anti-tumor activity in HT1080 human fibrosarcoma xenograft with twice daily dosing; format: in vivo; details: for anti-tumor activity in the HT1080 xenograft model (summary statement): administered orally, twice daily; for animals euthanized due to tumor volume exceeding 1,500 mm^3 / animals died: Example Compound 42 study, cohort of ten
Experimental: One million HT1080 cells were implanted subcutaneously in the right flank of female nude mice (Crl:NU-Fox1^nu). When the median tumor volume (MTV) was approximately 209 mm^3, mice were randomized into four cohorts of ten animals. […] All cohorts were dosed twice daily for 7 days. The mice were observed daily for mortality and signs of toxicity. Tumor volumes and body weights were determined from Days 1 to 22. The results are depicted in FIG. 4.

[5] = Example Compounds 44/45 study, 12 mg/kg twice daily for 7 days, Day 9

| half-life at 1 µM [2] [min] | half-life at 1 µM [3] [min] | SMILES | Stability at 60° C. and 75% RH [1] | Stability at 40° C. and 75% RH [1] | other results |
| --- | --- | --- | --- | --- | --- |
|  |  | O=C(NCc1ccc[n+](COC(=O)N2CCCC2)c1)Nc1ccc(OCCc2ccccc2-c2ccccc2)cc1 [Example 59, 3-{[({4-[2-(Biphenyl-2-yl)ethoxy]phenyl}carbamoyl)amino]methyl}-1-{[(pyrrolidin-1-ylcarbonyl)oxy]methyl}pyridinium] | Deliquesced at 4 h |  |  |
|  |  | O=C(NCc1ccc[n+](COC(=O)c2ccccc2O)c1)Nc1ccc(OCCc2ccccc2-c2ccccc2)cc1 [Example 55, 3-{[({4-[2-(Biphenyl-2-yl)ethoxy]phenyl}carbamoyl)amino]methyl}-1-{[(2-hydroxybenzoyl)oxy]methyl}pyridinium] | Deliquesced at 4 h | Deliquesced at 4 h |  |
|  |  | O=C(NCc1ccc[n+](COC(=O)N2CCOCC2)c1)Nc1ccc(OCCc2ccccc2-c2ccccc2)cc1 [Example 60, 3-{[({4-[2-(Biphenyl-2-yl)ethoxy]phenyl}carbamoyl)amino]methyl}-1-{[(morpholin-4-ylcarbonyl)oxy]methyl}pyridinium] | Deliquesced at 4 h | Deliquesced at 4 h |  |
| 59.1 | 29.8 | CC(C)C(OC(=O)c1ccccc1)[n+]1cccc(CNC(=O)Nc2ccc(OCCc3ccccc3-c3ccccc3)cc2)c1 (centres unmarked) [Example 43, 1-[1-(Benzoyloxy)-2-methylpropyl]-3-{[({4-[2-(biphenyl-2-yl)ethoxy]phenyl}carbamoyl)amino]methyl} pyridinium] | Approximately 5:95 parent to prodrug observed at 14 days | No change in morphology at 14 days, only prodrug observed |  |
| 399 | 53.5 | CC(C)C(OC(=O)C(C)(C)C)[n+]1cccc(CNC(=O)Nc2ccc(OCCc3ccccc3-c3ccccc3)cc2)c1 (centres unmarked) [Example 40, 3-{[({4-[2-(Biphenyl-2-yl)ethoxy]phenyl}carbamoyl)amino]methyl}-1-{1-[(2,2-dimethylpropanoyl)oxy]-2-methylpropyl}pyridinium] | Approximately 5:95 parent to prodrug moiety observed at 14 days | No change in morphology at 14 days, only prodrug observed |  |
| 1250 | 87.2 | O=C(NCc1ccc[n+](COC(=O)N2CCC[C@H]2CO)c1)Nc1ccc(OCCc2ccccc2-c2ccccc2)cc1 [Example 46, 3-{[({4-[2-(Biphenyl-2-yl)ethoxy]phenyl}carbamoyl)amino]methyl}-1-[({[(2S)-2-(hydroxymethyl)pyrrolidin-1-yl]carbonyl}oxy)methyl]pyridinium] |  |  |  |
| 18.7 | > 5 | CC(=O)OC(C)[n+]1cccc(CNC(=O)Nc2ccc(OCCc3ccccc3-c3ccccc3)cc2)c1 (centres unmarked) [Example 37, 1-[1-(Acetyloxy)ethyl]-3-{[({4-[2-(biphenyl-2-yl)ethoxy]phenyl}carbamoyl)amino]methyl}pyridinium] | Deliquesced at 2 Hr No change in composition | Deliquesced at 2 Hr No change in composition |  |
| 30.9 | > 5 | CC(=O)OC(C(C)C)[n+]1cccc(CNC(=O)Nc2ccc(OCCc3ccccc3-c3ccccc3)cc2)c1 (centres unmarked) [Example 38, 1-[1-(Acetyloxy)-2-methylpropyl]-3-{[({4-[2-(biphenyl-2-yl)ethoxy]phenyl}carbamoyl)amino]methyl}pyridinium] | Deliquesced at 4 days | No change in morphology at 7 days |  |
|  |  | COC(=O)CCNC(=O)OC[n+]1cccc(CNC(=O)Nc2ccc(OCCc3ccccc3-c3ccccc3)cc2)c1 [Example 49, Methyl N-{[(3-{[({4-[2-(biphenyl-2-yl)ethoxy]phenyl}carbamoyl)amino]methyl}pyridinium-1-yl)methoxy]carbonyl}-beta-alaninate] | Deliquesced at 7 days | Deliquesced at 24 hrs No decomposition observed |  |
|  |  | COC(=O)CCC(=O)OC[n+]1cccc(CNC(=O)Nc2ccc(OCCc3ccccc3-c3ccccc3)cc2)c1 [Example 54, 3-{[({4-[2-(Biphenyl-2-yl)ethoxy]phenyl}carbamoyl)amino]methyl}-1-{[(4-methoxy-4-oxobutanoyl)oxy]methyl}pyridinium] | Deliquesced at 4 days |  |  |
|  |  | COC(=O)CNC(=O)OC[n+]1cccc(CNC(=O)Nc2ccc(OCCc3ccccc3-c3ccccc3)cc2)c1 [Example 48, Methyl N-{[(3-{[({4-[2-(biphenyl-2-yl)ethoxy]phenyl}carbamoyl)amino]methyl}pyridinium-1-yl)methoxy]carbonyl}glycinate] | Deliquesced at 2 hr No decomposition observed | Deliquesced at 2 hr No decomposition observed |  |
|  |  | COC(=O)CN(C)C(=O)OC[n+]1cccc(CNC(=O)Nc2ccc(OCCc3ccccc3-c3ccccc3)cc2)c1 [Example 50, Methyl N-{[(3-{[({4-[2-(biphenyl-2-yl)ethoxy]phenyl}carbamoyl)amino]methyl}pyridinium-1-yl)methoxy]carbonyl}-N-methylglycinate] | Oiled out at 2 days No decomposition observed | No change in morphology at 14 days, only prodrug observed |  |
|  |  | CC(C)C(=O)OC(C)[n+]1cccc(CNC(=O)Nc2ccc(OCCc3ccccc3-c3ccccc3)cc2)c1 (centres unmarked) [Example 47, 3-{[({4-[2-(Biphenyl-2-yl)ethoxy]phenyl}carbamoyl)amino]methyl}-1-{1-[(2-methylpropanoyl)oxy]ethyl}pyridinium] | Approximately 45:55 parent to prodrug observed after 14 days | No change in morphology at 14 days, only prodrug observed |  |
|  |  | O=C(NCc1ccc[n+](COC(=O)c2cccnc2)c1)Nc1ccc(OCCc2ccccc2-c2ccccc2)cc1 [Example 53, 3-{[({4-[2-(Biphenyl-2-yl)ethoxy]phenyl)carbamoyl)amino]methyl}-1-{[(pyridin-3-ylcarbonyl)oxy]methyl}pyridinium] | All prodrug decomposed to parent at 24 h |  |  |
|  |  | CC(OC(=O)c1ccccc1)[n+]1cccc(CNC(=O)Nc2ccc(OCCc3ccccc3-c3ccccc3)cc2)c1 (centres unmarked) [Example 42, 1-[1-(Benzoyloxy)ethyl]-3-{[({4-[2-(biphenyl-2-yl)ethoxy]phenyl}carbamoyl)amino]methyl}pyridinium] | Deliquesced at 13 days, approx 40:60 parent to prodrug observed | No change in morphology at 14 days, only prodrug observed | MTV increase ([4]; 4 mg/kg twice daily for 7 days, Day 8): 131%; tumor growth inhibition ([4]; 4 mg/kg twice daily for 7 days, end of dosing, Day 8): 21%; MTV increase ([4]; 4 mg/kg twice daily for 7 days, end of the study, Day 15): 469%; MTV increase ([4]; 6 mg/kg twice daily for 7 days, Day 8): 87%; tumor growth inhibition ([4]; 6 mg/kg twice daily for 7 days, end of dosing, Day 8): 48%; MTV increase ([4]; 6 mg/kg twice daily for 7 days, end of the study, Day 15): 215%; MTV decrease ([4]; 8 mg/kg twice daily for 7 days, Day 8): 4%; tumor regression ([4]; 8 mg/kg twice daily for 7 days, end of dosing, Day 8): 4%; MTV increase ([4]; 8 mg/kg twice daily for 7 days, end of the study, Day 15): 449%; MTV decrease ([4]; 12 mg/kg twice daily for 7 days, Day 8): 38%; tumor regression ([4]; 12 mg/kg twice daily for 7 days, end of dosing, Day 8): 38%; MTV increase ([4]; 12 mg/kg twice daily for 7 days, end of the study, Day 15): 236%; animals euthanized due to tumor volume exceeding 1,500 mm^3 ([4]; 4 mg/kg): three; animals died ([4]; 6 mg/kg): One; animals euthanized due to tumor volume exceeding 1,500 mm^3 ([4]; 6 mg/kg): one; animals died ([4]; 8 mg/kg): One; animals euthanized due to tumor volume exceeding 1,500 mm^3 ([4]; 8 mg/kg): two; animals died ([4]; 12 mg/kg): One; anti-tumor activity in the HT1080 xenograft model (summary statement) ([4]; all doses tested): dose-dependent anti-tumor activity |

| SMILES | half-life at 1 µM [2] [min] | half-life at 1 µM [3] [min] | Stability at 60° C. and 75% RH [1] | Stability at 40° C. and 75% RH [1] | other results |
| --- | --- | --- | --- | --- | --- |
| CC(=O)OC[C@@H]1CCCN1C(=O)OC[n+]1cccc(CNC(=O)Nc2ccc(OCCc3ccccc3-c3ccccc3)cc2)c1 [Example 45, 1-{[({(2S)-2-[(Acetyloxy)methyl]pyrrolidin-1-yl}carbonyl)oxy]methyl}-3-{[({4-[2-(biphenyl-2-yl)ethoxy]phenyl}carbamoyl)amino]methyl}pyridinium] | > 5 | > 5 |  |  | MTV decrease [4, 5]: 54%; tumor regression [4, 5]: 54%; tumor growth inhibition relative to vehicle ([4]; Example Compounds 44/45 study, 12 mg/kg twice daily for 7 days, Day 22): 91%; MTV increase ([4]; Example Compounds 44/45 study, 12 mg/kg twice daily for 7 days, end of the study, Day 22): 33%; anti-tumor activity in the HT1080 xenograft model (summary statement) ([4]; all doses tested): significant anti-tumor activity; Tolerability ([4]; xenograft mice, all doses tested, orally twice daily): well tolerated |
